Assay results published in ChEMBL document CHEMBL4354805, “Discovery of MK-8719, a Potent O-GlcNAcase Inhibitor as a Potential Treatment for Tauopathies” (J Med Chem, 2019).
pEC50, pIC50, pKi: −log10 of the molar value. Values belong to the molecule of their own block, whether it stands above or below them.

Key:
[1] = biological target: T1, Protein O-GlcNAcase (Homo sapiens, UniProt O60502); assay: Inhibition of recombinant human OGA
T1 sequence (O60502 whole entry): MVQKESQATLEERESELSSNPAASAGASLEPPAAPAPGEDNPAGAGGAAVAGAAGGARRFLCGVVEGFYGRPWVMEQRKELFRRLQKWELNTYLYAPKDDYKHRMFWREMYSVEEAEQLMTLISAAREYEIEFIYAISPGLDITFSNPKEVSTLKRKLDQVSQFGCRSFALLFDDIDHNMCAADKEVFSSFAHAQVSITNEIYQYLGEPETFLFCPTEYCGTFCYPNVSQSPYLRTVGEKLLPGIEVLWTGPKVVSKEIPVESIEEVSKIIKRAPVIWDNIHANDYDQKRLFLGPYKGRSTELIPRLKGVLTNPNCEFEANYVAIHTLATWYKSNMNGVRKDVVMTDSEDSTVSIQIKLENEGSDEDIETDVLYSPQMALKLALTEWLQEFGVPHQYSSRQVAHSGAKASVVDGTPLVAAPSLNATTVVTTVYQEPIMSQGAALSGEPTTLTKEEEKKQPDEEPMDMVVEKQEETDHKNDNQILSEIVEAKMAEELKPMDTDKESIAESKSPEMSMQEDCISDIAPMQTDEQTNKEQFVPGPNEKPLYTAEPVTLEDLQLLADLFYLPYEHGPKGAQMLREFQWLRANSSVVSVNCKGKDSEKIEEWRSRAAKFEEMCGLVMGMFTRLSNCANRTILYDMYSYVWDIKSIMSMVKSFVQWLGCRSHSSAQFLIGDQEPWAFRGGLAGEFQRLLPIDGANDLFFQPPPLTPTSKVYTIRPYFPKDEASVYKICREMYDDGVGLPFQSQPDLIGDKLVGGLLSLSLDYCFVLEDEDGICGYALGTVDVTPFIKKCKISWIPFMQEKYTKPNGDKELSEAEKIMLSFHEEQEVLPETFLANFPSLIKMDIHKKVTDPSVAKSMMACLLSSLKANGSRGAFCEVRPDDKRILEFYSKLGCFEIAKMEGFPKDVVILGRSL

[2] = biological target: T2, Beta-hexosaminidase subunit beta (Homo sapiens, UniProt P07686); assay: Inhibition of human beta hexosaminidase assessed as inhibitory constant using 4-methylumbelliferyl N-acetyl-beta-D-glucosaminide dihydrate as substrate measured every 60 sec for 45 mins by fluorescence spectrophotometry
T2 sequence (P07686 whole entry): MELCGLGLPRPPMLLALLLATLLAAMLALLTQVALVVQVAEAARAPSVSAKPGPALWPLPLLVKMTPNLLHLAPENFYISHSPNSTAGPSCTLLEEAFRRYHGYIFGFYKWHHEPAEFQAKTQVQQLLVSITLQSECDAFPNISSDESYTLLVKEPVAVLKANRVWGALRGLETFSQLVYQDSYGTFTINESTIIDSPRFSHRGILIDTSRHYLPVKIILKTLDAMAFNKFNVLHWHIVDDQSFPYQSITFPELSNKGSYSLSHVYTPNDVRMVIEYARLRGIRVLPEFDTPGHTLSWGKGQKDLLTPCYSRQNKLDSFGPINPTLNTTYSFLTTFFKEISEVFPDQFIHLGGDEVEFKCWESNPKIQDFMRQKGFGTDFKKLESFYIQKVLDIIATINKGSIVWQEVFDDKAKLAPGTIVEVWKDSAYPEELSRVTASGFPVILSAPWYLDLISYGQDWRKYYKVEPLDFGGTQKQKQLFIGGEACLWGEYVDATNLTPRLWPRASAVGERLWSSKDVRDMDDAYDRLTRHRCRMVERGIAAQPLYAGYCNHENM

[3] = tested on: MDR1; assay: Apparent permeability in pig LLC-PK1 cells transfected with MDR1; type: ADME, cell-based, Sus scrofa
[4] = biological target: T3, Protein O-GlcNAcase (Rattus norvegicus, UniProt Q8VIJ5); assay: Inhibition of OGA in rat PC12 cells assessed as OGlcNAcylated protein level incubated for 24 hrs by ELISA; type: cell-based
T3 sequence (Q8VIJ5 whole entry): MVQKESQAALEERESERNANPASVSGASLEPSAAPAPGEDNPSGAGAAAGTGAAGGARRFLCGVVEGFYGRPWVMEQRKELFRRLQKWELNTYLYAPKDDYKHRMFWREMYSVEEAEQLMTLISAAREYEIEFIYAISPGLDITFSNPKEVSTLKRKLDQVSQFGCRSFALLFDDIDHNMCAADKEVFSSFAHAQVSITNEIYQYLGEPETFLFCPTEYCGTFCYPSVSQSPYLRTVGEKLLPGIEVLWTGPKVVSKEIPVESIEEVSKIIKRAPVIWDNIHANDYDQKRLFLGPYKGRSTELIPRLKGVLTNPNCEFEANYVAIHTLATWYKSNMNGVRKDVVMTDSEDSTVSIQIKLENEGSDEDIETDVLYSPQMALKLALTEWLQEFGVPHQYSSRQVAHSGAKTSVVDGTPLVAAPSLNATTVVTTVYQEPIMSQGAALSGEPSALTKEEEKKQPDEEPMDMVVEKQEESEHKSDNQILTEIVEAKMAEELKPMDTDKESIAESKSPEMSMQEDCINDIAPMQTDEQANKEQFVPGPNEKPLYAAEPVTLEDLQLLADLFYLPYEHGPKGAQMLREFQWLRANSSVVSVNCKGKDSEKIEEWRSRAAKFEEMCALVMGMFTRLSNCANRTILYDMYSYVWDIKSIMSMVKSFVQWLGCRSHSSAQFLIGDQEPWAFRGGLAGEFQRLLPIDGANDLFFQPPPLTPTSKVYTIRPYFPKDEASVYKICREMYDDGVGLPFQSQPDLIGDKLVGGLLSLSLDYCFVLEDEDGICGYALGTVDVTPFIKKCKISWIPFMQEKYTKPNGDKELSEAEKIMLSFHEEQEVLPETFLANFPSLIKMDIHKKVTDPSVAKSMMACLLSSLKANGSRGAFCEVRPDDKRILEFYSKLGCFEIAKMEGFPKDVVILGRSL

[5] = biological target: Voltage-gated inwardly rectifying potassium channel KCNH2 (Homo sapiens, UniProt Q12809); assay: Displacement of MK-0499 from human ERG
Chain of Voltage-gated inwardly rectifying potassium channel KCNH2 (Q12809 whole entry): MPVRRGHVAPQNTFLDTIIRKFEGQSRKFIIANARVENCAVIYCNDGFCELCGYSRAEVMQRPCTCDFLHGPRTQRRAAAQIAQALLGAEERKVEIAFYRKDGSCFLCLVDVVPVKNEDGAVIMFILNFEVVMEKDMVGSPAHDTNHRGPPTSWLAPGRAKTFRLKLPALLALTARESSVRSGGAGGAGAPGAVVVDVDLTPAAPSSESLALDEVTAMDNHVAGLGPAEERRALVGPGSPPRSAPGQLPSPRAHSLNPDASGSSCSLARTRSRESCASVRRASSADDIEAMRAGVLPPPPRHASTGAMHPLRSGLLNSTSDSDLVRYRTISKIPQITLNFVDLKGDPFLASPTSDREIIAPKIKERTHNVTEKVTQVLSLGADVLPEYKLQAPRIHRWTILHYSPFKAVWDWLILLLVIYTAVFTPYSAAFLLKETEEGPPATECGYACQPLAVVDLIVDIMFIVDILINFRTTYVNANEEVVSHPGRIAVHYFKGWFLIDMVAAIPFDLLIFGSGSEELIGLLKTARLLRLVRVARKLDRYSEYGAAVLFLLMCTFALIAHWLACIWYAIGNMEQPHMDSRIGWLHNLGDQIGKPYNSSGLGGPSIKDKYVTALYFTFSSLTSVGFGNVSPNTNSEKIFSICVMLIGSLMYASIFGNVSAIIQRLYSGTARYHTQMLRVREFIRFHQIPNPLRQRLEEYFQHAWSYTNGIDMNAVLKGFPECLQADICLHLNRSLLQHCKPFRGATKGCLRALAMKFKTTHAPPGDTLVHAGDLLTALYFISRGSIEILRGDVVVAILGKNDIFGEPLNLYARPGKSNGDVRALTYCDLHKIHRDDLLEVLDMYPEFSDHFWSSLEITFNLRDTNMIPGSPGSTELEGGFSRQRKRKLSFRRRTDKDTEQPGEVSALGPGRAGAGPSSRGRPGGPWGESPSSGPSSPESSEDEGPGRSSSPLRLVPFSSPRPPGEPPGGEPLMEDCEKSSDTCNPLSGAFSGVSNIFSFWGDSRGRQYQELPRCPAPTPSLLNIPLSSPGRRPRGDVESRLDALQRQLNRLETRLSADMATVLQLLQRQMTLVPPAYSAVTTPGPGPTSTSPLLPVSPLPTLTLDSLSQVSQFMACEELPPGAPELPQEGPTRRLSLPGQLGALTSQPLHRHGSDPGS

[6] = biological target: Sodium channel protein type 5 subunit alpha (Homo sapiens, UniProt Q14524); assay: Inhibition of Nav1.5 (unknown origin)
Chain of Sodium channel protein type 5 subunit alpha (Q14524 whole entry): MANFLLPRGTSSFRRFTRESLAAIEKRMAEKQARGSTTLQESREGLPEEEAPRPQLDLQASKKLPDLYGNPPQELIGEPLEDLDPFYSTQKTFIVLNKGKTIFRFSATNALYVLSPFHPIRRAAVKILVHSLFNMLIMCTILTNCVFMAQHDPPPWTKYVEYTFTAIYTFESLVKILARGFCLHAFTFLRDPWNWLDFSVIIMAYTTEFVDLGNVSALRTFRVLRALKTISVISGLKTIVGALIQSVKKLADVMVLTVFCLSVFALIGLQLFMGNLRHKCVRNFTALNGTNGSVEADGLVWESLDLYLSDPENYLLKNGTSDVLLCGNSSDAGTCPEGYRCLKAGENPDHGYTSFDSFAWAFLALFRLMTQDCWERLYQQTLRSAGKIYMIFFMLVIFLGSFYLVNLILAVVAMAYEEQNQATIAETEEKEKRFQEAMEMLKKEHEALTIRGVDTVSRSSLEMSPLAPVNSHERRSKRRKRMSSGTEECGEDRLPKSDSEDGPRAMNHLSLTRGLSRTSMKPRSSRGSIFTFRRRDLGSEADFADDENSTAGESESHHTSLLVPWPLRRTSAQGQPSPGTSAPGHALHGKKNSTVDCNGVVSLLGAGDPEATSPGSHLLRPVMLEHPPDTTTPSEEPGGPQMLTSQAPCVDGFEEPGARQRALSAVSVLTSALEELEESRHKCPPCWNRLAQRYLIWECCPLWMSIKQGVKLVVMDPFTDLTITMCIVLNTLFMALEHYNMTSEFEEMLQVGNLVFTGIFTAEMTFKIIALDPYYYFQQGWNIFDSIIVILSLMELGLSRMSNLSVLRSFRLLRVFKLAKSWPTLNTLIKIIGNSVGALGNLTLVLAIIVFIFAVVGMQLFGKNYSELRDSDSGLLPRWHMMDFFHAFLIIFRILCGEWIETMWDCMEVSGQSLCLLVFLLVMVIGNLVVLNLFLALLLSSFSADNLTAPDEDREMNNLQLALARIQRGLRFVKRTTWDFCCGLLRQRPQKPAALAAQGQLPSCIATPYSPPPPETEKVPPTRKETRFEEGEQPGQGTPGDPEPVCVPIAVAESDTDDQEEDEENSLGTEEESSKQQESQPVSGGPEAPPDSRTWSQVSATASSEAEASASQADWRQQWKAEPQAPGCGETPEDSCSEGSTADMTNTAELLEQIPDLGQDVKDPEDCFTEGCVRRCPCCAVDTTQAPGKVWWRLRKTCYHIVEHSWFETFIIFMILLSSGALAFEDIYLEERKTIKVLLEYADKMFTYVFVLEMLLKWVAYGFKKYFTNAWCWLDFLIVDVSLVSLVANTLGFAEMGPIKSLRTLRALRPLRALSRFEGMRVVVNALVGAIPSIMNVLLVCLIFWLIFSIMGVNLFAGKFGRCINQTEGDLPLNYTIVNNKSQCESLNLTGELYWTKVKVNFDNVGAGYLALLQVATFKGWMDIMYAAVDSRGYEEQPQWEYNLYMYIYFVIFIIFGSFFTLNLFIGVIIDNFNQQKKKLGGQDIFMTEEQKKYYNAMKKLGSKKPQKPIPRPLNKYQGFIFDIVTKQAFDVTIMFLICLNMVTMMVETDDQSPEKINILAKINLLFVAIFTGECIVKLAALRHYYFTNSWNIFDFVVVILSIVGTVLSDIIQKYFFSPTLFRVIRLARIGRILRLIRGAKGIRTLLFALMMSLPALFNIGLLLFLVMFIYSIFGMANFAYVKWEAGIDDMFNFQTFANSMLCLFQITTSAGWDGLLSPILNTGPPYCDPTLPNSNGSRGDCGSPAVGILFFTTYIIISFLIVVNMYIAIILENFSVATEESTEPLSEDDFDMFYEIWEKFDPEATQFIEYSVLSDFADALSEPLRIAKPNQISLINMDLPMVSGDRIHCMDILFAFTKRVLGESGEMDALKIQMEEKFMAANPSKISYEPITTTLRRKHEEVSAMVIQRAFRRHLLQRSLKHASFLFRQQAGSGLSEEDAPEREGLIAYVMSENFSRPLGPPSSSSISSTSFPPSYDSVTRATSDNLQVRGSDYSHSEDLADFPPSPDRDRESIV

[7] = biological target: Voltage-dependent L-type calcium channel subunit alpha-1C (Homo sapiens, UniProt Q13936); assay: Inhibition of Cav1.2 (unknown origin)
[8] = biological target: Cytochrome P450 3A4 (Homo sapiens, UniProt P08684); assay: Inhibition of CYP3A4 (unknown origin); type: ADME
Chain of Cytochrome P450 3A4 (P08684 whole entry): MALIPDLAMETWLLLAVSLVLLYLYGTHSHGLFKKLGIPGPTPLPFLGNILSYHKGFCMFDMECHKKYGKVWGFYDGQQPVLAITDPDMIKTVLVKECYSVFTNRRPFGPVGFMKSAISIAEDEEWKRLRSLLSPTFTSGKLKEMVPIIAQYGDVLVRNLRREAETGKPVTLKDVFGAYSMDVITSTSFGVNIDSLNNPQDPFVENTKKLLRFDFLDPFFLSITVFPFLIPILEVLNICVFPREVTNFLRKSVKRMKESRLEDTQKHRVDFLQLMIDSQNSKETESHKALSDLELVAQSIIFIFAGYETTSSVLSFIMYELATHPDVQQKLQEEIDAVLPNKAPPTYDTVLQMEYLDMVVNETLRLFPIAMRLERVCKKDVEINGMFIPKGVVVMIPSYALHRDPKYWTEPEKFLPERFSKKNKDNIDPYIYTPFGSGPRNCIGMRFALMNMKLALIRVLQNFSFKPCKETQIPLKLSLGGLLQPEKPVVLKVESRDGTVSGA

[9] = biological target: Cytochrome P450 2D6 (Homo sapiens, UniProt P10635); assay: Inhibition of CYP2D6 (unknown origin); type: ADME
Chain of Cytochrome P450 2D6 (P10635 whole entry): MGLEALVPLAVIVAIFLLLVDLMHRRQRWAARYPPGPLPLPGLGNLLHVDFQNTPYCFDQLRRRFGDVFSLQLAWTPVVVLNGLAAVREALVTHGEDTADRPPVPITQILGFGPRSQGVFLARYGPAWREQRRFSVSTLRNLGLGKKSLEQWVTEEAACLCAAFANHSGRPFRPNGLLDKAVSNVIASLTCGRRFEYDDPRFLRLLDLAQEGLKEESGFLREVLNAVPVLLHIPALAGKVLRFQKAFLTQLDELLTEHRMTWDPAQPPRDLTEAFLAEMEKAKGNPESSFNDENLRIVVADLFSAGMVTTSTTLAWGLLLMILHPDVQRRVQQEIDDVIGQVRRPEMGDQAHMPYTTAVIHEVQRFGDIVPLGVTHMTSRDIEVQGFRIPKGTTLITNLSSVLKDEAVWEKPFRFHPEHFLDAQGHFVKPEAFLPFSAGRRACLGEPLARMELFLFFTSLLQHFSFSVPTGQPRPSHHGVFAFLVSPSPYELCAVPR

[10] = biological target: Cytochrome P450 2C9 (Homo sapiens, UniProt P11712); assay: Inhibition of CYP2C9 (unknown origin); type: ADME
Chain of Cytochrome P450 2C9 (P11712 whole entry): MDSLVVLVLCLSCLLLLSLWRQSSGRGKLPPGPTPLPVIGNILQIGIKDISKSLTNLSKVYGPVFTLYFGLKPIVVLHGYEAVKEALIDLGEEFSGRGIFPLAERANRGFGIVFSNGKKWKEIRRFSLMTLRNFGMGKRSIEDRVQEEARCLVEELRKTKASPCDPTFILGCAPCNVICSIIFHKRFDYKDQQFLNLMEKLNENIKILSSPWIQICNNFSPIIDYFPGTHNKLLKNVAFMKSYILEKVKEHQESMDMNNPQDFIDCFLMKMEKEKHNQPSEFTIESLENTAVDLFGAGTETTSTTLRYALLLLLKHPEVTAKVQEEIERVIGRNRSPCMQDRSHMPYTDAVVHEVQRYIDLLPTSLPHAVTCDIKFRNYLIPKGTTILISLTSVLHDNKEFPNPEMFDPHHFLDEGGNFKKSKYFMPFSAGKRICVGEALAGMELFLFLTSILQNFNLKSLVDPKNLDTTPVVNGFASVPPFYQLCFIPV

[11] = biological target: T4, Nuclear receptor subfamily 1 group I member 2 (Homo sapiens, UniProt O75469); assay: Activation of PXR (unknown origin) assessed as CYP3A4 induction
T4 sequence (O75469 whole entry): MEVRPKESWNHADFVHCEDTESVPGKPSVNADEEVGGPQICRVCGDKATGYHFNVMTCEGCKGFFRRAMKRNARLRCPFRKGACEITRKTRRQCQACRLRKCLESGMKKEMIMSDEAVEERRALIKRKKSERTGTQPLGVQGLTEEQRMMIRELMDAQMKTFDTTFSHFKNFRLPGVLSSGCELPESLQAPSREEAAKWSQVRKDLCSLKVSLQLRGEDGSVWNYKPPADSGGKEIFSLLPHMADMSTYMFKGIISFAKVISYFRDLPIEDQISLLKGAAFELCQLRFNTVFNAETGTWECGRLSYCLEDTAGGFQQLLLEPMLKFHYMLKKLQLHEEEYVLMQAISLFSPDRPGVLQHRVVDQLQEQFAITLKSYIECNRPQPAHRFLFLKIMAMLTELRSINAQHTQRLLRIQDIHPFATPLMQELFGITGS

[12] = AUCN in Wistar Han rat at 3 mg/kg, po; type: ADME, organism-based; settings: in vivo
[13] = Clearance in Wistar Han rat at 2 mg/kg, iv; type: ADME, organism-based; settings: in vivo
[14] = Half life in Wistar Han rat at 2 mg/kg, iv; type: ADME, organism-based; settings: in vivo
[15] = Volume of distribution at steady state in Wistar Han rat at 2 mg/kg, iv or 3 mg/kg, po; type: ADME, organism-based; settings: in vivo, read-out: Vdss
[16] = Oral bioavailability in Wistar Han rat at 3 mg/kg; type: ADME, organism-based; settings: in vivo

SMILES: NC1=N[C@@H]2[C@@H](O)[C@H](O)[C@@H](CF)O[C@@H]2S1
pKi [1]: 5.92

SMILES: NC1=N[C@@H]2[C@@H](O)[C@H](O)[C@@H](C(F)F)O[C@@H]2S1
Papp [3]: 9.2 ×10⁻⁶ cm/s
pKi [1]: 6.12
pEC50 [4]: 5.62
pKi [2]: < 5.00

SMILES: OC[C@H]1O[C@@H]2SC(N3CCCCC3)=N[C@@H]2[C@@H](O)[C@@H]1O
pKi [1]: 5.74
pKi [2]: < 5.00

SMILES: CC1CN(C2=N[C@@H]3[C@@H](O)[C@H](O)[C@@H](CO)O[C@@H]3S2)C1
Papp [3]: 2.4 ×10⁻⁶ cm/s
pKi [1]: 7.14
pKi [2]: < 5.00

SMILES: CN(C)C1=N[C@@H]2C[C@H](O)[C@@H](C(F)F)O[C@@H]2S1
Papp [3]: 31 ×10⁻⁶ cm/s
pKi [1]: < 5.52
pKi [2]: < 5.00

SMILES: NC1=N[C@@H]2C[C@H](O)[C@@H](CO)O[C@@H]2S1
pKi [1]: < 5.52
pKi [2]: < 5.00

SMILES: OC[C@H]1O[C@@H]2SC(N3CCC(F)CC3)=N[C@@H]2[C@@H](O)[C@@H]1O
pKi [1]: < 5.52
pKi [2]: < 5.00

Second part, led by results:

pKi [1]: 7.30
pKi [2]: < 5.00
SMILES: CNC1=N[C@@H]2[C@@H](F)[C@H](O)[C@@H](CF)O[C@@H]2S1

pKi [1]: 6.70
pKi [2]: < 5.00
SMILES: O[C@H]1[C@H](O)[C@@H](CF)O[C@@H]2SC(N3CCC3)=N[C@H]12

pKi [1]: 6.57
pKi [2]: < 5.00
pIC50 [8]: < 4.30
pIC50 [9]: < 4.30
pIC50 [10]: < 4.30
pEC50 [11]: < 4.52
SMILES: CCNC1=N[C@@H]2[C@@H](OC)[C@H](O)[C@@H](CO)O[C@@H]2S1
pIC50 [5]: < 4.52
pIC50 [6]: < 4.52
pIC50 [7]: < 4.52

pKi [1]: 6.72
pIC50 [8]: < 4.30
pIC50 [9]: < 4.30
pIC50 [10]: < 4.30
pEC50 [11]: < 4.52
SMILES: CCNC1=N[C@@H]2[C@@H](O)[C@H](O)[C@@H](COC)O[C@@H]2S1
pIC50 [5]: < 4.52
pIC50 [6]: < 4.52
pIC50 [7]: < 4.52

pKi [1]: 7.39
pKi [2]: < 5.00
SMILES: CN(C)C1=N[C@@H]2[C@@H](F)[C@H](O)[C@@H](CO)O[C@@H]2S1

pKi [1]: < 5.52
pIC50 [8]: < 4.30
pIC50 [9]: < 4.30
pIC50 [10]: < 4.30
pEC50 [11]: < 4.52
SMILES: CCNC1=N[C@@H]2[C@@H](O)[C@H](OC)[C@@H](CO)O[C@@H]2S1
pIC50 [5]: < 4.52
pIC50 [6]: < 4.52
pIC50 [7]: < 4.52

pKi [1]: 7.85
pEC50 [4]: 6.35
pKi [2]: < 5.00
AUC/dose [12]: 0.394 µM·kg·h/mg
clearance [13]: 48.1 mL/min/kg
half-life [14]: 1.69 h
Vd [15]: 1.92 L/kg
bioavailability [16]: 30.1%
SMILES: CCCNC1=N[C@@H]2[C@@H](F)[C@H](O)[C@@H](CO)O[C@@H]2S1
